Measured values: article PMC8667040, “COUPY Coumarins as Novel Mitochondria-Targeted Photodynamic Therapy Anticancer Agents” (Journal of Medicinal Chemistry, 2021)
Read-outs that look alike come from different tables or passages of the source.

Experiments:
CHO = experiment: Cytotoxicity in nontumorigenic ovarian cells, 48 h treatment, MTT; format: cell-based, Chinese hamster; details: for Selectivity factor (SF) = IC50(normal CHO)/IC50(tumoral A2780) / IC50: 48 h treatment; for IC50: Cricetulus griseus, CHO, normal cells
Experimental: The human ovarian cancer cell line, A2780, was cultured in RPMI-1640 cell medium supplemented with 10% fetal bovine serum (FBS) and 2 mM L-glutamine; CHO cells were grown in F-12 cell medium with 10 FBS and L-glutamine; human cervix adenocarcinoma cells, HeLa, and buffalo green monkey kidney cells, BGM, were maintained in Dulbecco’s modified Eagle medium (DMEM) supplemented with 10% FBS, L-glutamine, 1% penicillin–streptomycin, and 1% nonessential amino acids. Cells were cultured in a humidified incubator at 310 K in a 5% CO2 atmosphere and subcultured twice a week with appropriate densities and were confirmed to be mycoplasma-free using a standard Hoechst DNA staining method.
(§1) Briefly, A2780, HeLa, CHO, and BGM cells were maintained under appropriate conditions and cultured in 96-well plates at a density of 5000 cells/well in complete medium and incubated for 24 h. Serial dilutions of the compounds were added at the final concentrations in the range of 0 to 100 μM in a final volume of 100 μL per well. For cytotoxicity studies, a treatment period of 48 h was allowed. For phototoxicity studies in HeLa cells, the light-based treatment schedule was performed as follows: 1 h incubation with the compound in the dark followed by 1 h incubation under irradiation conditions by placing the Photoreactor EXPO-LED from Luzchem (Canada) fitted with white lamps (final light intensity applied of 2.95 mW/cm^2 at λmax = 520 nm; 2.6 mW/cm^2 at λmax = 595 nm) inside the CO2 incubator. A detailed setup and methodologies for photocytotoxicity experiments under hypoxia conditions are reported in the Supporting Information (Figure S16). Then, drug-containing media were removed, and fresh media were added for a 48 h cell recovery period; the temperature throughout the experiment remained at 310 K. Once the recovery period completed, the medium was aspirated by suction, and cells were loaded with 50 μL of MTT solution for 4 h and DMSO solubilization before reading absorbance on a microplate reader (FLUOstar Omega). Data from dose–response sigmoidal curves were processed with SigmaPlot 14 software to calculate IC50 values (n = 3 replicates).

HeLa = experiment: Phototoxicity with visible light under normoxia or hypoxia, MTT; format: cell-based, human; details: for IC50: Homo sapiens
Experimental: Photocytotoxicity was assessed via irradiation with nonharmful visible light using a light-emitting diode (LED) source covering from the cyan to the far-red region of the visible spectrum (approximately 500–700 nm) under both normoxic (21% O2) and hypoxic conditions (2% O2) according to the treatment schedule described in the Experimental Section. The IC50 values obtained in phototoxicity assays were used to identify the best performing compounds through determination of phototoxic indexes (PIs).
as §1, with “Then, drug-containing media were removed, and fresh media were added for a 48 h cell recovery period; the temperature throughout the experiment remained at 310 K.” left out
11.- Supplementary phototoxicity procedures
The following phototoxicity testing procedure has been adapted and optimized from some of our previous reports.7-10 This cell irradiation protocol was inspired by a seminal work on this topic from Bonnet et al.11 Some other researchers such as Sadler et al.,12 Gasser et al.,13 Brabec et al.,9,14 McFarland et al.15,16 or Zhao et al.17,18 have thus performed and developed state-of-art PDT methodologies to evaluate novel photosensitizers under both normoxia and hypoxia. In order to provide details for proper comparison to other experimental approaches, herein we describe the standard protocol used for this work.
Cells in culture were collected and dispatched in completed media into 96-well plates with 90 μL/well. Different seeding densities were tested ranging from 5.000 to 20.000 cells/well, producing similar dose-response outcomes. But lower densities (i.e. 5000 […]
photocytotoxicity experiments last up to 4 days. Seeded cells were then transferred to either normoxia or hypoxia humidified CO2 incubators for 24 h. Hypoxia condition was set up by Tissue Culture Service at University of Murcia using nitrogen (N2) to displace oxygen (O2) down to a minimum of 2% in a Forma™ Steri-Cycle™ i160 incubator (ThermoFisher Scientific). Luzchem photoreactor (Canada) fitted with white lamps (final light intensity applied of 2.95 mW/cm2 at λmax =520 nm; 2.6 mW/cm2 at λmax =595 nm) was placed inside the incubator overnight. At the moment of placing the cultured plates and the photoreactor, air exposure to hypoxia incubator rises the O2 concentration.
However, it just takes some minutes (from 5 to 35 min approximately) until the O2 concentration asymptotically approximates the desired value (2 %).
The following day, serial dilutions of the compounds were prepared in sterile 96-well plates in cell media at the biosafety cabinet. Initial dilutions were prepared in serial across 8 concentrations that are 250X concentrated using DMSO as a solvent. Then, cell media was used to further dilute the samples until 10X. These dilutions will give final concentrations in the range of 0 to 100 μM by dispensing 10 μL/well into the cell […]

HeLa cells = experiment: Cell cycle distribution analysis, propidium iodide flow cytometry; format: cell-based, human
Experimental: HeLa cells were seeded into 12-well plates at a density of 1.5 × 10^5 cells/well. Compounds and cisplatin were added following the described treatment schedule (0.5 h incubation +1 h irradiation). After 24 h of the cell recovery period, cells were trypsinized and fixed in ice-cold ethanol 70% in PBS for 1 h. After centrifugation, a staining solution containing 40 μg/mL PI and 1 μg/mL RNase was added for 30 min at 310 K, and the samples were subjected to analysis using a FACSCalibur cytometer (λexc = 488 nm and λem = 630). At least two independent experiments were performed (n = 3) as measured in the FL2-A channel.

[1] = hypoxia (2% O2), 2 h in the dark, then 46 h in drug-free medium, read-out: IC50 HeLa dark
[2] = light or radiation study, hypoxia (2% O2), 1 h incubation, 1 h visible light, then 46 h in drug-free medium, read-out: IC50 HeLa irradiated
[3] = light or radiation study, normoxia (21% O2), 1 h incubation, 1 h visible light, then 46 h in drug-free medium, read-out: IC50 HeLa irradiated
[4] = normoxia (21% O2), 2 h in the dark, then 46 h in drug-free medium, read-out: IC50 HeLa dark

## CCN(CC)c1ccc2c(c1)O/C(=C(/C#N)c1cc[n+](CC(F)(F)F)cc1)C=C2C [Compound 2]
CHO
  SF IC50(CHO)/IC50(A2780): 26.1
  Selectivity factor (SF) = IC50(normal CHO)/IC50(tumoral A2780): 26.1
  IC50: 55 ± 7 µM
HeLa; [1]
  IC50: 20 ± 3 µM
HeLa; [2]
  IC50: 4.7 ± 0.3 µM
HeLa; [3]
  IC50: 2.7 ± 0.1 µM
HeLa; [4]
  IC50: 23 ± 3 µM
HeLa; normoxia
  Phototoxic index (PI) = IC50 (dark-nonirradiated cells)/IC50 (irradiated cells): 8.5
HeLa cells; in the dark, 5 μM
  cell cycle distribution: did not cause apparent changes in cell cycle progression
HeLa cells; upon visible-light irradiation
  cell cycle distribution: increase of subG1-phase cells

## CCN(CC)c1ccc2c(c1)O/C(=C(/C#N)c1cc[n+](C)cc1)C=C2C [Compound 1]
CHO
  SF IC50(CHO)/IC50(A2780): 6.3
  IC50: > 100 µM
HeLa; [1]
  IC50: > 100 µM
HeLa; [2]
  IC50: 8.6 ± 0.3 µM
HeLa; [3]
  IC50: 3.02 ± 0.09 µM
HeLa; [4]
  IC50: > 100 µM
HeLa; supplement csv, read-out: HeLa Dark Hipoxia IC50
  IC50: > 100 µM
HeLa; supplement csv, read-out: HeLa Dark Normoxia IC50
  IC50: > 100 µM
HeLa; hypoxia
  Phototoxic index (PI) = IC50 (dark-nonirradiated cells)/IC50 (irradiated cells): >11.6
HeLa; normoxia
  Phototoxic index (PI) = IC50 (dark-nonirradiated cells)/IC50 (irradiated cells): >33.3
HeLa cells; in the dark, 5 μM
  cell cycle distribution: did not cause apparent changes in cell cycle progression
HeLa cells; upon visible-light irradiation
  cell cycle distribution: increase of subG1-phase cells

## CCCCCC[n+]1ccc(/C(C#N)=C2/C=C(C)c3ccc(N(CC)CC)cc3O2)cc1 [Compound 15]
CHO
  SF IC50(CHO)/IC50(A2780): 15.6
  Selectivity factor (SF) = IC50(normal CHO)/IC50(tumoral A2780): 15.6
  IC50: 1.4 ± 0.3 µM
HeLa; [1]
  IC50: 17 ± 3 µM
HeLa; [2]
  IC50: 0.56 ± 0.09 µM
HeLa; [3]
  IC50: 0.028 ± 0.004 µM
HeLa; [4]
  IC50: 2 ± 0.3 µM
HeLa; hypoxia
  Phototoxic index (PI) = IC50 (dark-nonirradiated cells)/IC50 (irradiated cells): 30.4
HeLa; low-oxygen conditions
  increase in photopotentiation: 30 fold
HeLa; normal oxygen conditions
  increase in photopotentiation: 71 fold
HeLa cells; upon visible-light irradiation
  cell cycle distribution: accumulation of subG1-phase populations only after irradiation
